Results on seven compounds are retold here after US20260234147A1 (priority 2023, published 2026).

Each structure is given as a SMILES string. Where two headings read alike, the source gives them in different places. A value given as a limit tells only on which side of the number the result lay.

One data set deals with hMOR (Homo sapiens, UniProt P35372). Nature of the data set: Radioligand binding assay (Eurofins Cerep), [3H]DAMGO displacement.
A further data set deals with hDOR (Homo sapiens, UniProt P41143). Nature of the data set: Radioligand binding assay (Eurofins Cerep), [3H]DADLE displacement.
hDOR, sequence (P41143 whole entry): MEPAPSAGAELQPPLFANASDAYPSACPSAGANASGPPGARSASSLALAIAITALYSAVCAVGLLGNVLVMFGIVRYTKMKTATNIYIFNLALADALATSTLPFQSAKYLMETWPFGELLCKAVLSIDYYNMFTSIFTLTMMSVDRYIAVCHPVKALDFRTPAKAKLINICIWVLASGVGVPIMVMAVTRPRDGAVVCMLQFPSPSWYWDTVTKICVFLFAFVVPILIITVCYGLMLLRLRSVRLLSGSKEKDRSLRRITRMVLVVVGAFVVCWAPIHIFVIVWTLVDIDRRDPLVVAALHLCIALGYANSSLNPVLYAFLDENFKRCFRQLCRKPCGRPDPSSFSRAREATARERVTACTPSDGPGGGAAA
A further data set concerns the target hKOR (Homo sapiens, UniProt P41145). The data set is described as follows: Radioligand binding assay (Eurofins Cerep), [3H]U69,593 displacement.
Data set [1] in a line: Metabolic stability in rat liver microsomes. Format: in vitro ADME. Conditions: for RLM stability: rat liver microsomes 1 mg/ml, substrate 1 μM, NADPH, 37° C.; for Whole liver clearance, CL int, H: in vitro intrinsic clearance in RLM scaled to whole organ (rat). As for the experimental part: In vitro metabolic stability of each compound was determined using rat liver microsomes in triplicate. Verapamil was used as a positive control to check the activity of the microsomes. The incubation mixtures consisted of rat liver microsomes (1 mg microsomal protein/ml), substrate (1 μM), and reduced NADPH (1 mM) in a total volume of 0.4 ml potassium phosphate buffer (50 mM, pH 7.4). Reactions were initiated with the addition of NADPH and kept in an incubator shaker at 37° C. Aliquots of 25 μl were withdrawn at 0, 5, 10, 15, 30, and 60 min and mixed with 125 μl of acetonitrile with formic acid (0.1% v/v) containing phenacetin (50 ng/ml; internal standard) for the termination of the reaction. The samples were then vortex mixed and filtered through a […] 96-well membrane filtration plate under centrifugation at speed of 2000×g for 5 min at 4° C. The filtrates were subjected to UPLC-mass spectrometry (MS/MS) analysis.
The intrinsic clearance of the compounds was calculated using a half-life employing the ‘substrate depletion’ approach. The apparent half-life was calculated from the pseudo-first-order rate constants obtained by linear regression of log (concentration) and time plots. The in vitro intrinsic clearance of IFN was estimated using the formula: […]
Where k is the slope of the line obtained by plotting the natural logarithmic of the percentage of parent remaining versus time and V is the volume of incubation.
The in vitro intrinsic clearance was scaled to whole-organ (hepatic) in vivo intrinsic CL (CLint,H) using the scaling factors available in the literature using equation (Mahmood I. Application of allometric principles for the prediction of pharmacokinetics in human and veterinary drug development. Advanced drug delivery reviews, 2007, 59(11), 1177-1192)
MPPGL represents the microsomal protein per gram of Sprague Dawley rat liver (45 mg/g) and liver weight per kg body weight was 40 g/kg.

Another data set concerns the target T1, α2A adrenergic receptor (Homo sapiens, UniProt P08913).
T1 construct: Eurofins Cerep (contract screening)
T1 sequence (P08913 1-465): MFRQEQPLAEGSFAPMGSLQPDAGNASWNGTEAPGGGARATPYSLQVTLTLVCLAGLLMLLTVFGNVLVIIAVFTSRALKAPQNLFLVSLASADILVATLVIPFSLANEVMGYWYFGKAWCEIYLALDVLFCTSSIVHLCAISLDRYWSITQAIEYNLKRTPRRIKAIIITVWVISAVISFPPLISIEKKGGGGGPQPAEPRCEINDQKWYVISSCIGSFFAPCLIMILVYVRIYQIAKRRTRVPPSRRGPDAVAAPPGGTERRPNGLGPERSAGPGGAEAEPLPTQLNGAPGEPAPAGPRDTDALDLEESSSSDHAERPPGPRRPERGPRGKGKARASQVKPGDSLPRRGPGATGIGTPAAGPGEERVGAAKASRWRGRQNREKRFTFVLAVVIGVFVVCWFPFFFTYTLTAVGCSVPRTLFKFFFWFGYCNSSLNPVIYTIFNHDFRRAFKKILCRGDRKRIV
The data set is described as follows: Radioligand binding assay (Eurofins Cerep), [3H]RX 821002 displacement.

The target of a further data set is T2, α2C adrenergic receptor (Homo sapiens, UniProt P18825).
T2 construct: Eurofins Cerep (contract screening)
T2 sequence (P18825 1-462): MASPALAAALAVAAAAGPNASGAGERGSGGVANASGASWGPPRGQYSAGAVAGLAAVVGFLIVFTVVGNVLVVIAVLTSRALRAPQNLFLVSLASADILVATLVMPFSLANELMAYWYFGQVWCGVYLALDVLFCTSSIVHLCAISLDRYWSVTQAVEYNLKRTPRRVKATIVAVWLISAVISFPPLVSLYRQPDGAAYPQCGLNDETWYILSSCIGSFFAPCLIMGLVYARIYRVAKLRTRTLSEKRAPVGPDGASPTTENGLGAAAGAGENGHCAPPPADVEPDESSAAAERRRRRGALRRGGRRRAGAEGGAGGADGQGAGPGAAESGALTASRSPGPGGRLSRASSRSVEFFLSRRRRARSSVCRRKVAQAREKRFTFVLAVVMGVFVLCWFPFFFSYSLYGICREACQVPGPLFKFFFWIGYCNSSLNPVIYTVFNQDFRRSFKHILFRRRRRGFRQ
The data set is described as above. Conditions: Ki (nM ± SEM) a2C-AR, 3 independent experiments.

[2] abbreviates: Table A4, data summary #2, read-out: MOR Ki ± SEM.
Setting [3] is: Table A1, data summary #1, read-out: DOR Ki ± SEM.
The mark [4] stands for this setting: Table A4, data summary #2, read-out: DOR Ki ± SEM.
Where [5] appears, read: Table A1, data summary #1, read-out: KOR Ki ± SEM.
The mark [6] stands for this setting: Table A4, data summary #2, read-out: KOR Ki ± SEM.
The mark [7] stands for this setting: Table A4, data summary #2, read-out: Alpha2A Ki ± SEM.
Setting [8] is: Table A1, data summary #1, read-out: MOR Ki ± SEM.
Where [9] appears, read: Table A1, data summary #1, read-out: Alpha2A Ki ± SEM.
The mark [10] stands for this setting: Table 3-2, 3 independent experiments, read-out: Ki (nM ± SEM) MOR.
Setting [11] is: Table 3-3, 3 independent experiments, read-out: Ki (nM ± SEM) MOR.
Where [12] appears, read: Table 3-2, 3 independent experiments, read-out: Ki (nM ± SEM) DOR.
Setting [13] is: Table 3-3, 3 independent experiments, read-out: Ki (nM ± SEM) DOR.
[14] abbreviates: Table 3-2, 3 independent experiments, read-out: Ki (nM ± SEM) KOR.
Where [15] appears, read: Table 3-3, 3 independent experiments, read-out: Ki (nM ± SEM) KOR.
The mark [16] stands for this setting: Ki (nM ± SEM) a2A-AR, Table 3-2, 3 independent experiments.
Setting [17] is: Ki (nM ± SEM) a2A-AR, Table 3-3, 3 independent experiments.

hKOR, sequence (P41145 whole entry): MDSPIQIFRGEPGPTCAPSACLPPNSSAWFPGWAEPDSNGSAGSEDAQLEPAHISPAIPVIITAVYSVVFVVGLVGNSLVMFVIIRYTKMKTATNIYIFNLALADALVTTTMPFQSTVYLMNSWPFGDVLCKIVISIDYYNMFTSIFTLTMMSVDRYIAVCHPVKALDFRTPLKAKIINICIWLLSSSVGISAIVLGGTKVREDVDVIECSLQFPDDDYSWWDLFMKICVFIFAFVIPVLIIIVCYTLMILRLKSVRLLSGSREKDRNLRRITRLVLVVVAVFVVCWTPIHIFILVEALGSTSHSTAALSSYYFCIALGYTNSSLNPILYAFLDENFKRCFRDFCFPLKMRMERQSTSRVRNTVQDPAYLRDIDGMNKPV
hMOR, sequence (P35372 whole entry): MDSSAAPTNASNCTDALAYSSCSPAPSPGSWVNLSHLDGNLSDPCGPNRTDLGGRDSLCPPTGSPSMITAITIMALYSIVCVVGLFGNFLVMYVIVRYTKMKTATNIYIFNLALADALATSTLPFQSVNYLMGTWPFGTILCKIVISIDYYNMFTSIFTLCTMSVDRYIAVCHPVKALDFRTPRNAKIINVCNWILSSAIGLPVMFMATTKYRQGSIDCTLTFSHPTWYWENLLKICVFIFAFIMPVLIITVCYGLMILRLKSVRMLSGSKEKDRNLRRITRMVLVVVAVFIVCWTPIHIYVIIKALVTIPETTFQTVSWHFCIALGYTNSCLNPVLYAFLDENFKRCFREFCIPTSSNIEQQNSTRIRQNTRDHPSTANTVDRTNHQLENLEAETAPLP

`CCCN(C)C(=O)/C(=C/OC)[C@H]1C[C@H]2c3[nH]c4cccc(OC)c4c3CCN2C[C@H]1CC` [SUSM-521, (E)-2-((2S,3S,12bS)-3-ethyl-8-methoxy-1,2,3,4,6,7,12,12b-octahydroindolo[2,3-a]quinolizin-2-yl)-3-methoxy-N-methyl-N-propylacrylamide]: the Ki at hMOR (setting [2]) came to 222 ± 33 nM; at hMOR (read-out: Ki at hMOR) it was 167 nM; on hDOR (setting [3]), 5890 ± 105 nM; on hDOR (setting [4]), 4030 ± 797 nM; at hKOR (setting [5]), 2610 ± 588 nM; on hKOR (setting [6]) it was 2610 ± 588 nM. The Ki at α2A adrenergic receptor (setting [7]) worked out at 1510 ± 676 nM. The “RLM stability” value in data set [1] is under 5 min.
In the case of `CCCNC(=O)/C(=C/OC)[C@H]1C[C@H]2c3[nH]c4cccc(OC)c4c3CCN2C[C@H]1CC` [SUSM-27, (E)-2-((2S,3S,12bS)-3-ethyl-8-methoxy-1,2,3,4,6,7,12,12b-octahydroindolo[2,3-a]quinolizin-2-yl)-3-methoxy-N-propylacrylamide], the Ki on hMOR (setting [8]) was 4560 ± 692 nM; at hMOR (setting [2]), 4560 ± 692 nM; at hDOR (setting [3]), over 10000 nM; on hDOR (setting [4]), over 10000 nM; on hKOR (setting [5]) it was over 10000 nM; on hKOR (setting [6]), over 10000 nM. Further, the inhibition constant (Ki) on α2A adrenergic receptor (setting [9]) was determined as 2730 ± 1260 nM; at α2A adrenergic receptor (setting [7]) it was 6450 ± 2590 nM. Besides, the “Whole liver clearance, CL int, H” value in data set [1] was determined as 20.8 mL/min/kg. Moreover, the “RLM stability” value in data set [1] is over 60 min.
On to `CC[C@@H]1CN2CCc3c([nH]c4cccc(OC)c34)[C@@H]2C[C@@H]1/C(=C\OC)C(=O)N1CCCCC1` [SUSM-518, (E)-2-((2S,3S,12bS)-3-ethyl-8-methoxy-1,2,3,4,6,7,12,12b-octahydroindolo[2,3-OMea]quinolizin-2-yl)-3-methoxy-1-(piperidin-1-yl)prop-2-en-1-one], for which the inhibition constant Ki on hMOR (setting [2]) is 244 ± 55 nM; on hMOR (read-out: Ki at hMOR), 129 nM; at hDOR (setting [3]), over 10000 nM; on hDOR (setting [4]) it was over 10000 nM; on hKOR (setting [5]), 7460 ± 1420 nM; on hKOR (setting [6]), 7460 ± 1420 nM. The Ki at α2A adrenergic receptor (setting [7]) was 523 ± 155 nM. Also, the “RLM stability” value in data set [1] is under 5 min.
For the compound `CC[C@@H]1CN2CCc3c([nH]c4cccc(OC)c34)[C@@H]2C[C@@H]1/C(=C\OC)C(=O)N(C)CC` [SUSM-520, (E)-N-ethyl-2-((2S,3S,12bS)-3-ethyl-8-methoxy-1,2,3,4,6,7,12,12b-octahydroindolo[2,3-a]quinolizin-2-yl)-3-methoxy-N-methylacrylamide], the Ki at hMOR (setting [8]) was 459 ± 40.7 nM; at hMOR (setting [2]), 452 ± 33 nM; at hDOR (setting [3]), over 10000 nM; on hDOR (setting [4]), over 10000 nM; on hKOR (setting [5]) it was 4780 ± 1140 nM; at hKOR (setting [6]) it was 4780 ± 1140 nM. The Ki on α2A adrenergic receptor (setting [7]) turned out to be 938 ± 223 nM. Besides, the “Whole liver clearance, CL int, H” value in data set [1] worked out at 879.7 mL/min/kg. The “RLM stability” value in data set [1] is given as under 5 min.
Turning to `CC[C@@H]1CN2CCc3c([nH]c4cccc(OC)c34)[C@@H]2C[C@@H]1/C(=C\OC)C(=O)NC1CCCC1` [SUSM-506, (E)-N-cyclopentyl-2-((2S,3S,12bS)-3-ethyl-8-methoxy-1,2,3,4,6,7,12,12b-octahydroindolo[2,3-a]quinolizin-2-yl)-3-methoxyacrylamide], the Ki was 1380 ± 176 nM at hMOR (setting [8]); 1380 ± 176 nM on hMOR (setting [2]); over 10000 nM on hDOR (setting [3]); over 10000 nM at hDOR (setting [4]); 5850 ± 657 nM at hKOR (setting [5]); 5850 ± 657 nM at hKOR (setting [6]). In addition, the Ki at α2A adrenergic receptor (setting [9]) was 8970 ± 572 nM; on α2A adrenergic receptor (setting [7]), 5750 ± 568 nM. The “Whole liver clearance, CL int, H” value in data set [1] was 36.4 mL/min/kg. Besides, the “RLM stability” value in data set [1] is 30 min.
In the case of `COC(=O)CC1CCN(CCc2c[nH]c3c(OC)cccc23)CC1` [Compound 3-42], the Ki on hMOR (setting [10]), on hMOR (setting [11]), at hDOR (setting [12]), at hDOR (setting [13]), at hKOR (setting [14]) and at hKOR (setting [15]) was over 10000 nM throughout. For the same compound, the Ki on α2A adrenergic receptor (setting [16]) was found to be 1300 ± 129 nM; at α2A adrenergic receptor (setting [17]), 1300 ± 129 nM; at α2C adrenergic receptor (Table 3-2) it was 830 ± 268 nM.
For `COC(=O)CC1CCN(CCc2c[nH]c3cccc(OC)c23)CC1` [Compound 3-22], the Ki at hMOR (Table 3-1, 3 independent experiments, read-out: Ki (nM ± SEM) MOR) was over 10000 nM; on hMOR (setting [10]), over 10000 nM; on hMOR (setting [11]), over 10000 nM; on hMOR (Table 3-5, 3 independent experiments, read-out: Ki (nM ± SEM) MOR), over 10000 nM; at hMOR (Table 3-6, 3 independent experiments, read-out: Ki (nM ± SEM) MOR), over 10000 nM; on hDOR (Table 3-1, 3 independent experiments, read-out: Ki (nM ± SEM) DOR), over 10000 nM. Further, the Ki on hDOR (setting [12]) is over 10000 nM; on hDOR (setting [13]), over 10000 nM; on hDOR (Table 3-5, 3 independent experiments, read-out: Ki (nM ± SEM) DOR) it was over 10000 nM; at hDOR (Table 3-6, 3 independent experiments, read-out: Ki (nM ± SEM) DOR) it was over 10000 nM; on hKOR (Table 3-1, 3 independent experiments, read-out: Ki (nM ± SEM) KOR), over 10000 nM; on hKOR (setting [14]), over 10000 nM. Moreover, the Ki was over 10000 nM at hKOR (setting [15]); over 10000 nM on hKOR (Table 3-5, 3 independent experiments, read-out: Ki (nM ± SEM) KOR); over 10000 nM on hKOR (Table 3-6, 3 independent experiments, read-out: Ki (nM ± SEM) KOR); 229 ± 24.9 nM on α2A adrenergic receptor (Ki (nM ± SEM) a2A-AR, Table 3-1, 3 independent experiments); 229 ± 24.9 nM on α2A adrenergic receptor (setting [16]); 229 ± 24.9 nM on α2A adrenergic receptor (setting [17]). The Ki at α2A adrenergic receptor (Ki (nM ± SEM) a2A-AR, Table 3-6, 3 independent experiments) came out at 229 ± 24.9 nM; on α2A adrenergic receptor (Ki (nM ± SEM) a2A-ar, Table 3-5, 3 independent experiments), 229 ± 24.9 nM; on α2C adrenergic receptor (Table 3-1) it was 69.3 ± 4.2 nM; at α2C adrenergic receptor (Table 3-2), 69.3 ± 4.16 nM; on α2C adrenergic receptor (Table 3-3), 69.3 ± 4.16 nM; at α2C adrenergic receptor (Table 3-5), 69.3 ± 4.16 nM. The Ki on α2C adrenergic receptor (Table 3-6) amounted to 69.3 ± 4.16 nM.
